The values below come from PMC12396409, “Screening and hit evaluation of a microbial metabolite library against the pathogenic Plasmodium falciparum and Toxoplasma gondii parasites” (International Journal for Parasitology: Drugs and Drug …, 2025).

The test system of assay [1] is P. falciparum 3D7 parasites. Briefly: P. falciparum growth inhibition assay, 1-cycle (72 h treatment), SYBR DNA staining (library screen at 2 μg/mL and dose-response). Format: cell-based, Plasmodium falciparum.
For assay [2], the system named is P. falciparum 3D7 parasites. Briefly: P. falciparum growth inhibition assay, 2-cycle (120 h treatment), delayed-death screen and dose-response. Format: cell-based, Plasmodium falciparum.
The subject of assay [3] is T. gondii RH strain (RH-Tub-eYFP) tachyzoites. Briefly: microbe, parasite or virus in culture. The format is cell-based, Toxoplasma gondii. The note with it: 72 h; for percent parasite growth at 2 µg/mL: Toxoplasma gondii, parasite screen 2 μg/mL.
The mark [4] stands for this setting: T. gondii, 2 μg/mL, values are growth (% of control).
Setting [5] is: library screen at 2 μg/mL, 72 h, % growth, replicate 1.
Setting [6] is: library screen at 2 μg/mL, 72 h, % growth, replicate 2.
Where [7] appears, read: library screen at 2 μg/mL, 120 h, % growth, replicate 1.
Where [8] appears, read: library screen at 2 μg/mL, 120 h, % growth, replicate 2.
Where [9] appears, read: library screen at 2 μg/mL, % growth, replicate 1.
The mark [10] stands for this setting: library screen at 2 μg/mL, % growth, replicate 2.
The mark [11] stands for this setting: P. falciparum 3D7, 72 h, library screen at 2 μg/mL, % growth, replicate 1.
The mark [12] stands for this setting: P. falciparum 3D7, 72 h, library screen at 2 μg/mL, % growth, replicate 2.
The mark [13] stands for this setting: P. falciparum 3D7, 120 h, library screen at 2 μg/mL, % growth, replicate 1.
[14] abbreviates: P. falciparum 3D7, 120 h, library screen at 2 μg/mL, % growth, replicate 2.
Setting [15] is: T. gondii RH, library screen at 2 μg/mL, % growth, replicate 1.
Setting [16] is: T. gondii RH, library screen at 2 μg/mL, % growth, replicate 2.

Like-named read-outs stand apart in the source and are kept apart here.

Consider `CO[C@@H]1[C@@H](OC(N)=O)[C@@H](O)[C@H](Oc2ccc3c(O)c(NC(=O)c4ccc(O)c(CC=C(C)C)c4)c(=O)oc3c2C)OC1(C)C` [Novobiocin, reference compound], for which the activity at 2 µg/mL in assay [1] (Plasmodium falciparum, 3D7, 72 h, P. falciparum, 2 μg/mL, 72 h; read-out: 1) Growth (%) at 72 h) worked out at 81.4%. In addition, the “3) Fold change (72 h/120 h)” value in assay [2] is 5.7. Besides, the activity at 2 µg/mL in assay [2] (Plasmodium falciparum, 3D7, 120 h, P. falciparum, 2 μg/mL, 120 h; read-out: 2) Growth (%) at 120 h) turned out to be 14.2%. The Mean in assay [3] (T. gondii, 2 μg/mL, mean of both replicates, growth (% of control)) was determined as 51.41. In assay [3] (setting [4]), the “Replicate 1” value was determined as 9.17 and the “Replicate 2” value was found to be 93.65.

In assay [1] (setting [5]), `C=CC(C)(C)[C@]12C[C@@H]3C(=O)Nc4ccccc4C(=O)N3[C@H]1N(C(C)=O)c1ccccc12` [Acetylaszonalenin] registered a Pf_72h_%Growth_Rep1 of 98.36%. The compound also returned a Pf_72h_%Growth_Rep2 in assay [1] (setting [6]) of 85.99%. In assay [2] (setting [7]), this compound came in with a Pf_120h_%Growth_Rep1 of 140.03%. The same compound came in with a Pf_120h_%Growth_Rep2 in assay [2] (setting [8]) of 96.89%. Also, in assay [3] (setting [9]), the Tg_72h_%Growth_Rep1 is on record as 84.46%. For the same compound, the Tg_72h_%Growth_Rep2 in assay [3] (setting [10]) stood at 90.00%.

Consider `CN1C(=O)c2ccccc2-n2c(nc3ccccc3c2=O)/C1=C\c1ccccc1` [Benzomalvin B], for which the Mean in assay [1] (P. falciparum, 72 h, 2 μg/mL, mean of both replicates, growth (% of control)) is on record as 40.89. In addition, the Pf_72h_%Growth_Rep1 in assay [1] (setting [5]) was 1.98%. In addition, the Pf_72h_%Growth_Rep2 in assay [1] (setting [6]) was found to be 79.80%. This compound gave a Pf_120h_%Growth_Rep1 in assay [2] (setting [7]) of 2.26%. Besides, the Pf_120h_%Growth_Rep2 in assay [2] (setting [8]) is given as 61.47%. Also, in assay [3] (setting [9]), the Tg_72h_%Growth_Rep1 was found to be 108.53%. Also, the Tg_72h_%Growth_Rep2 in assay [3] (setting [10]) was 82.96%.

The compound `C=C1c2c(Cl)ccc(O)c2C(=O)C2=C(O)[C@]3(O)C(=O)C(C(N)=O)=C(O)[C@@H](N(C)C)[C@@H]3[C@@H](O)[C@H]12` [BIA-M1464] showed a Pf_72h_%Growth_Rep1 in assay [1] (setting [11]) of 76.80%. The compound further gave a Pf_72h_%Growth_Rep2 in assay [1] (setting [12]) of 116.17%. The Pf_120h_%Growth_Rep1 in assay [2] (setting [13]) turned out to be 99.01%. Further, in assay [2] (setting [14]), the Pf_120h_%Growth_Rep2 came out at 114.33%. This compound gave a Tg_72h_%Growth_Rep1 in assay [3] (setting [15]) of 124.80%. The compound also returned a Tg_72h_%Growth_Rep2 in assay [3] (setting [16]) of 96.61%.

In the case of `CC1=C[C@@H]2/C=C(/C)CCC(=O)[C@@H](O)CCC(=O)[C@]23C(=O)N[C@@H](CC(C)C)[C@@H]3[C@@H]1C` [Aspochalasin M], the Pf_72h_%Growth_Rep1 in assay [1] (setting [5]) was found to be 78.34%. The Pf_72h_%Growth_Rep2 in assay [1] (setting [6]) came out at 81.89%. Moreover, the Pf_120h_%Growth_Rep1 in assay [2] (setting [7]) amounted to 80.74%. Also, in assay [2] (setting [8]), the Pf_120h_%Growth_Rep2 was found to be 79.20%. Besides, in assay [3] (setting [9]), the Tg_72h_%Growth_Rep1 came to 143.85%. The compound also showed a Tg_72h_%Growth_Rep2 in assay [3] (setting [10]) of 96.90%.

In turn, `COc1ccc(C[C@H]2NC[C@H](O)[C@H]2O)cc1` [Deacetylanisomycin] returned a Pf_72h_%Growth_Rep1 in assay [1] (P. falciparum, 72 h, screen at 2 μg/mL, replicate 1) of 64.17%. The compound further yielded a Pf_72h_%Growth_Rep2 in assay [1] (P. falciparum, 72 h, screen at 2 μg/mL, replicate 2) of 43.98%. This compound displayed a Pf_120h_%Growth_Rep1 in assay [2] (P. falciparum, 120 h, screen at 2 μg/mL, replicate 1) of 36.01%. In assay [2] (P. falciparum, 120 h, screen at 2 μg/mL, replicate 2), this compound yielded a Pf_120h_%Growth_Rep2 of 30.23%. Also, the Tg_72h_%Growth_Rep1 in assay [3] (T. gondii, screen at 2 μg/mL, replicate 1) amounted to 5.55%. Also, the Tg_72h_%Growth_Rep2 in assay [3] (T. gondii, screen at 2 μg/mL, replicate 2) is 18.56%.

For `CC1(C)OC2CC(=O)OCC23C1CC(=O)C1(C)C3CCC2(C)C(c3ccoc3)OC(=O)C3OC321` (stereo not shown) [BIA-L1755], the Pf_72h_%Growth_Rep1 in assay [1] (setting [11]) came out at 83.85%. Further, the Pf_72h_%Growth_Rep2 in assay [1] (setting [12]) was determined as 113.59%. The compound further registered a Pf_120h_%Growth_Rep1 in assay [2] (setting [13]) of 93.20%. The same compound had a Pf_120h_%Growth_Rep2 in assay [2] (setting [14]) of 110.15%. In assay [3] (setting [15]), the Tg_72h_%Growth_Rep1 was determined as 135.94%. In assay [3] (setting [16]), this compound had a Tg_72h_%Growth_Rep2 of 85.64%.

For the compound `CC/C=C\[C@H](O)[C@H](O)C1=C(C)C(=O)[C@]2(O1)C(=O)N[C@@](OC)(C(=O)c1ccccc1)[C@@H]2O` [Pseurotin A], the activity at 2 µg/mL in assay [1] (Plasmodium falciparum, 3D7, P. falciparum, 72 h, parasite screen 2 μg/mL, % growth, replicate 1, read-out: Pf_72h_%Growth_Rep1) worked out at 85.8%; in assay [1] (Plasmodium falciparum, 3D7, P. falciparum, 72 h, parasite screen 2 μg/mL, % growth, replicate 2, read-out: Pf_72h_%Growth_Rep2) it was 95.5%; in assay [2] (Plasmodium falciparum, 3D7, P. falciparum, 120 h, parasite screen 2 μg/mL, % growth, replicate 1, read-out: Pf_120h_%Growth_Rep1), 79.7%; in assay [2] (Plasmodium falciparum, 3D7, P. falciparum, 120 h, parasite screen 2 μg/mL, % growth, replicate 2, read-out: Pf_120h_%Growth_Rep2), 139%. The percent parasite growth at 2 µg/mL in assay [3] (T. gondii, % growth, replicate 1, read-out: Tg_72h_%Growth_Rep1) was 122%; in assay [3] (T. gondii, % growth, replicate 2, read-out: Tg_72h_%Growth_Rep2), 81%.

`Cc1c2c(c(O)c3c(O)cccc13)C(=O)[C@]1(O)C(O)=C(C(N)=O)C(=O)[C@H](N(C)C)[C@@H]1C2.Cl` [Epianhydrotetracycline hydrochloride]: the Pf_72h_%Growth_Rep1 in assay [1] (setting [5]) stood at 83.48%. Also, the Pf_72h_%Growth_Rep2 in assay [1] (setting [6]) amounted to 108.73%. In assay [2] (setting [7]), this compound showed a Pf_120h_%Growth_Rep1 of 77.42%. The Pf_120h_%Growth_Rep2 in assay [2] (setting [8]) turned out to be 113.33%. Further, the Tg_72h_%Growth_Rep1 in assay [3] (setting [9]) is listed as 166.02%. This compound gave a Tg_72h_%Growth_Rep2 in assay [3] (setting [10]) of 109.09%.
